Results published in ChEMBL document CHEMBL2311255, “Discovery of alkenylboronic acids as neuroprotective agents affecting multiple biological targets involved in Alzheimer's disease” (Bioorg Med Chem Lett, 2013).
Calls of active or inactive are those of the source. No cut-off for these calls is given here.

Columns and labels:
[1] = system: SH-SY5Y; assay: Neuroprotective activity in human APP695-transfected SH-SY5Y cells assessed as decrease of malondialdehyde level after 16 hrs (reference value: 52 +/- 1.84 nmol/mg); assay type: functional
[2] = system: SH-SY5Y; assay: Neuroprotective activity in human APP695-transfected SH-SY5Y cells assessed as increase of glutathione level after 16 hrs (reference value: 17.79 +/- 1.59 nmol/mg); assay type: functional
[3] = system: Acetylcholinesterase; assay: Inhibition of AChE (unknown origin) measured for 3 mins by Ellman colorimetric method; conditions: Homo sapiens
[4] = system: SH-SY5Y; assay: Neuroprotective activity in human APP695-transfected SH-SY5Y cells assessed as H2O2-induced GSH-glutathione disulfide level after 16 hrs (reference value: 6.85 +/- 0.92 nmol/mg); assay type: functional
[5] = system: SH-SY5Y; assay: Neuroprotective activity in human APP695-transfected SH-SY5Y cells assessed as inhibition of H2O2-induced ROS production at 5 uM after 60 mins by DCFA-DA assay; assay type: functional; conditions: 1 h
[6] = Cytotoxicity against human APP695-transfected SH-SY5Y cells at 10 uM after 24 hrs by MTT assay; assay type: cell-based
[7] = system: SH-SY5Y; assay: Neuroprotective activity in human APP695-transfected SH-SY5Y cells assessed as inhibition of ROS production at 5 uM after 60 mins by DCFA-DA assay; assay type: functional, cell-based
[8] = system: SH-SY5Y; assay: Neuroprotective activity in human APP695-transfected SH-SY5Y cells assessed as decrease of H2O2-induced malondialdehyde level after 16 hrs (reference value: 67.83 +/- 5.86 nmol/mg); assay type: functional
[9] = system: SH-SY5Y; assay: Neuroprotective activity in human APP695-transfected SH-SY5Y cells assessed as GSH-glutathione disulfide level after 16 hrs (reference value: 4.71 +/- 0.48 nmol/mg); assay type: functional
[10] = system: SH-SY5Y; assay: Neuroprotective activity in human APP695-transfected SH-SY5Y cells assessed as inhibition of H2O2-induced decrease in glutathione level after 16 hrs (reference value: 22.95 +/- 0.59 nmol/mg); assay type: functional
[11] = system: SH-SY5Y; assay: Neuroprotective activity in human APP695-transfected SH-SY5Y cells assessed as inhibition of H2O2-induced increase of caspase-3 activity after 60 mins by fluorescence assay; assay type: functional
[12] = target: Beta-secretase 1 (Homo sapiens, UniProt P56817); assay: Inhibition of human recombinant BACE using H-RE-(EDANS)EVNLDAEFK(DABCYL)R-OH as substrate preincubated for 1 hr before addition of substrate measured after 1 hr
[13] = target: Amyloid-beta precursor protein (Homo sapiens) (UniProt P05067); assay: Inhibition of beta amyloid (25 to 35) (unknown origin) aggregation after 4 days by thioflavin-T fluorescence analysis
[14] = system: SH-SY5Y; assay: Neuroprotective activity in human APP695-transfected SH-SY5Y cells assessed as inhibition of H2O2-induced ROS production after 60 mins by DCFA-DA assay; assay type: functional, cell-based; conditions: 1 h
[15] = target: Amyloid-beta precursor protein (Homo sapiens) (UniProt P05067); assay: Inhibition of beta amyloid (25 to 35) (unknown origin) disaggregation after 4 days by thioflavin-T fluorescence analysis

Amyloid-beta precursor protein (Homo sapiens), sequence (P05067 whole entry): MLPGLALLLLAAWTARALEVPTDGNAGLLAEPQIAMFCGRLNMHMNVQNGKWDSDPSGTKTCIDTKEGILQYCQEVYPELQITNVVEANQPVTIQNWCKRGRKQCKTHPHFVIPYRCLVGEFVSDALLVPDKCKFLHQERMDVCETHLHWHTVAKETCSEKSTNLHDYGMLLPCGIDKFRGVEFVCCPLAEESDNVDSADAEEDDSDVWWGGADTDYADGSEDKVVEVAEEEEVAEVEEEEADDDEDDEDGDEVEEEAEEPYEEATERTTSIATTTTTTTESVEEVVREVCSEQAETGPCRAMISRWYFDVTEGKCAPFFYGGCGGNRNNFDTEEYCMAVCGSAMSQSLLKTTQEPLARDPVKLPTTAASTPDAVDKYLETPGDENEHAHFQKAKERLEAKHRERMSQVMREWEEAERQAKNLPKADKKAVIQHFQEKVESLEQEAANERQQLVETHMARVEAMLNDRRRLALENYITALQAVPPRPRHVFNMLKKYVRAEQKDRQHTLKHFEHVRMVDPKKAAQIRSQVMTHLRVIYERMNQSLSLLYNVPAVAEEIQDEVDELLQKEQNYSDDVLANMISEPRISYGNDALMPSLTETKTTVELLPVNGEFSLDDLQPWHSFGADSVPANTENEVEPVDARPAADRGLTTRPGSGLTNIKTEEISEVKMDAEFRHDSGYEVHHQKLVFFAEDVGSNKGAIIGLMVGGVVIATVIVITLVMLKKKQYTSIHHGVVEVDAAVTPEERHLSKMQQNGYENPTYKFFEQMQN
Beta-secretase 1, sequence (P56817 whole entry): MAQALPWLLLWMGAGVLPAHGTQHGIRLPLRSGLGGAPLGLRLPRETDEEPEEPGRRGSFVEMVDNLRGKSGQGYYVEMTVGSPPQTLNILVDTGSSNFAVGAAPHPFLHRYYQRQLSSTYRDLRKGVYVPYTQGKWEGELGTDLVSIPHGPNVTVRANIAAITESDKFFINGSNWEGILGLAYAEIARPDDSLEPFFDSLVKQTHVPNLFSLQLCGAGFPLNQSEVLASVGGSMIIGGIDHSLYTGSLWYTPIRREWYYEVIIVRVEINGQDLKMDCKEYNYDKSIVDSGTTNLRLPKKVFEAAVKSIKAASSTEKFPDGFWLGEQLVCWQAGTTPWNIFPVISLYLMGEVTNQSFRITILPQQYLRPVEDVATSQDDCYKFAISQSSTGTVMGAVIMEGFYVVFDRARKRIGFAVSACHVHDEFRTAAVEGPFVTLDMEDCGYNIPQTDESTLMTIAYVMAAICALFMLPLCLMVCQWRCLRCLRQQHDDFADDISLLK

| SMILES | Activity [1] | Activity [2] | inhibition [3] | Activity [4] | inhibition at 5 µM [5] | Activity [6] | inhibition [7] | Activity [8] | Activity [9] | Activity [10] | inhibition (INH) [11] | IC50 [12] | Activity [13] | IC50 [14] | Activity [15] |
| --- | --- | --- | --- | --- | --- | --- | --- | --- | --- | --- | --- | --- | --- | --- | --- |
| CC1(C)OB(/C=C/c2cccc(C(F)(F)F)c2)OC1(C)C | 44.03 nmol/mg | 33.77 nmol/mg | inactive | 4.75 nmol/mg | < 50% | Non-toxic | inactive | 45.55 nmol/mg | 5.53 nmol/mg | 43.29 nmol/mg | >50% |  |  |  |  |
| COc1ccc(/C=C/B(O)O)cc1 | 44.35 nmol/mg | 26.2 nmol/mg | inactive | 6 nmol/mg | < 50% | Non-toxic | inactive | 58.76 nmol/mg | 4.56 nmol/mg | 26.05 nmol/mg |  |  |  |  |  |
| OB(O)c1ccc(C(F)(F)F)cc1 | 45.36 nmol/mg | 23.32 nmol/mg | inactive | 5.85 nmol/mg | < 50% | Non-toxic | inactive | 73.23 nmol/mg | 5.76 nmol/mg | 26.59 nmol/mg |  |  |  |  |  |
| CCCCC/C=C/B(O)O | 40.34 nmol/mg | 27.35 nmol/mg | inactive | 3.94 nmol/mg | < 50% | Non-toxic | inactive | 59.21 nmol/mg | 4.65 nmol/mg | 27.22 nmol/mg |  |  |  |  |  |
| COc1cc(/C=C/B(O)O)cc(OC)c1 | 42.79 nmol/mg | 23.11 nmol/mg | inactive | 6.23 nmol/mg | < 50% | Non-toxic | inactive | 74.75 nmol/mg | 4.7 nmol/mg | 32.03 nmol/mg |  |  |  |  |  |
| OB(O)/C=C/c1ccc(F)cc1 | 37.73 nmol/mg | 28.19 nmol/mg | inactive | 4.58 nmol/mg | < 50% | Non-toxic | inactive | 52.64 nmol/mg | 4.75 nmol/mg | 27.42 nmol/mg | >50% |  |  |  |  |
| CN1CC(=O)OB(/C=C/c2ccccc2)OC(=O)C1 | 41.96 nmol/mg | 35.2 nmol/mg | inactive | 5.01 nmol/mg | < 50% | Non-toxic | inactive | 57.54 nmol/mg | 6.11 nmol/mg | 39.38 nmol/mg |  | 136 µM |  |  |  |
| OB(O)/C=C/C1CCCCC1 | 37.12 nmol/mg | 24.06 nmol/mg | inactive | 6.03 nmol/mg | < 50% | Non-toxic | inactive | 45.38 nmol/mg | 4.37 nmol/mg | 35.58 nmol/mg | >50% |  |  |  |  |
| OB(O)/C=C/c1ccccc1 [STYRYLBORONIC ACID] | 42.22 nmol/mg | 21.84 nmol/mg | inactive | 4.25 nmol/mg |  | Non-toxic | inactive | 53.23 nmol/mg | 4.6 nmol/mg | 30.62 nmol/mg |  |  | inactive | 8.08 µM | inactive |
| OB(O)/C=C/c1ccc(C(F)(F)F)cc1 | 35.67 nmol/mg | 31.48 nmol/mg | inactive | 4.47 nmol/mg |  | Non-toxic | inactive | 38.23 nmol/mg | 4.3 nmol/mg | 27.02 nmol/mg | >50% |  | inactive | 2.85 µM | inactive |
| CC1(C)OB(/C=C/c2ccc(F)cc2F)OC1(C)C | 39.76 nmol/mg | 31.51 nmol/mg | inactive | 6.06 nmol/mg | < 50% | Non-toxic | inactive | 53.1 nmol/mg | 5.33 nmol/mg | 34.77 nmol/mg |  |  |  |  |  |
| OB(O)c1ccccc1 [PHENYLBORONIC ACID] | 40.75 nmol/mg | 28.62 nmol/mg | inactive | 4.85 nmol/mg | < 50% | Non-toxic | inactive | 52.78 nmol/mg | 5.85 nmol/mg | 28.01 nmol/mg |  |  |  |  |  |
| COc1cc(/C=C/B2OC(C)(C)C(C)(C)O2)cc(OC)c1 | 48.18 nmol/mg | 25.36 nmol/mg | inactive | 4.53 nmol/mg | < 50% | Non-toxic | inactive | 53.36 nmol/mg | 4.49 nmol/mg | 27.98 nmol/mg |  |  |  |  |  |
| CC1(C)OB(/C=C/c2ccccc2)OC1(C)C | 40.71 nmol/mg | 34.74 nmol/mg | inactive | 4.89 nmol/mg | < 50% | Non-toxic | inactive | 51.76 nmol/mg | 3.87 nmol/mg | 37.04 nmol/mg |  |  |  |  |  |
